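These data come from cells grown in 96-well plates and exposed to compound for 48 hours at five concentrations. GI50 is the concentration that inhibits growth by half.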 Activity calls are given as the source filed them. Cut-off read from the data, not from the text of the source: active = GI50 up to about 1.1 µM and inactive = higher.
Columns and labels:
Assay in all cases: DTP human tumour cell line panel, 48 h
U-251 = system: U-251
HOP-62 = system: HOP-62
MDA-MB-435 = system: MDA-MB-435
SF-268 = system: SF-268
SNB-75 = system: SNB-75
UO-31 = system: UO-31
MDA-MB-231 = system: MDA-MB-231
SF-539 = system: SF-539
SK-MEL-5 = system: SK-MEL-5
CCRF-CEM = system: CCRF-CEM
MDA-N = system: MDA-N
EKVX = system: EKVX
SW-620 = system: SW-620
SN12C = system: SN12C
CAKI-1 = system: CAKI-1
SK-OV-3 = system: SK-OV-3
HT-29 = system: HT-29
OVCAR-3 = system: OVCAR-3
A549 = system: A549
BT-549 = system: BT-549
SNB-19 = system: SNB-19
DU-145 = system: DU-145
UACC-257 = system: UACC-257
LOX IMVI = system: LOX IMVI
NCI/ADR-RES = system: NCI/ADR-RES
HCT-116 = system: HCT-116
UACC-62 = system: UACC-62
T47D = system: T47D
OVCAR-5 = system: OVCAR-5
NCI-H460 = system: NCI-H460
HL-60 = system: HL-60
M14 = system: M14
K562 = system: K562
PC-3 = system: PC-3
SF-295 = system: SF-295
A498 = system: A498
HOP-92 = system: HOP-92
HCT-15 = system: HCT-15
NCI-H522 = system: NCI-H522
HCC 2998 = system: HCC 2998
RXF 393 = system: RXF 393
Malme-3M = system: Malme-3M
SK-MEL-28 = system: SK-MEL-28
Hs-578T = system: Hs-578T
786-0 = system: 786-0
COLO 205 = system: COLO 205
MCF7 = system: MCF7
NCI-H23 = system: NCI-H23
KM12 = system: KM12
SK-MEL-2 = system: SK-MEL-2
TK-10 = system: TK-10
MOLT-4 = system: MOLT-4
OVCAR-8 = system: OVCAR-8
ACHN = system: ACHN
SR = system: SR
OVCAR-4 = system: OVCAR-4
NCI-H226 = system: NCI-H226
RPMI-8226 = system: RPMI-8226
IGROV-1 = system: IGROV-1

CC[C@@]12C=CC(=S)N(CCSc3ccccc3)[C@@H]1c1c(n(S(=O)(=O)c3ccc(OC)cc3)c3ccccc13)CC2
GI50 (U-251): > 100 µM (inactive)
GI50 (HOP-62): > 100 µM (inactive)
GI50 (MDA-MB-435): > 100 µM (inactive)
GI50 (SF-268): > 100 µM (inactive)
GI50 (SNB-75): > 100 µM (inactive)
GI50 (UO-31): > 100 µM (inactive)
GI50 (MDA-MB-231): > 100 µM (inactive)
GI50 (SF-539): > 100 µM (inactive)
GI50 (SK-MEL-5): > 100 µM (inactive)
GI50 (CCRF-CEM): > 100 µM (inactive)
GI50 (MDA-N): > 100 µM (inactive)
GI50 (EKVX): > 100 µM (inactive)
GI50 (SW-620): > 100 µM (inactive)
GI50 (SN12C): > 100 µM (inactive)
GI50 (CAKI-1): > 100 µM (inactive)
GI50 (SK-OV-3): > 100 µM (inactive)
GI50 (HT-29): > 100 µM (inactive)
GI50 (OVCAR-3): > 100 µM (inactive)
GI50 (A549): > 100 µM (inactive)
GI50 (BT-549): > 100 µM (inactive)
GI50 (SNB-19): > 100 µM (inactive)
GI50 (DU-145): > 100 µM (inactive)
GI50 (UACC-257): > 100 µM (inactive)
GI50 (LOX IMVI): > 100 µM (inactive)
GI50 (NCI/ADR-RES): > 100 µM (inactive)
GI50 (HCT-116): > 100 µM (inactive)
GI50 (UACC-62): > 100 µM (inactive)
GI50 (T47D): > 100 µM (inactive)
GI50 (OVCAR-5): > 100 µM (inactive)
GI50 (NCI-H460): > 100 µM (inactive)
GI50 (HL-60): > 100 µM (inactive)
GI50 (M14): > 100 µM (inactive)
GI50 (K562): > 100 µM (inactive)
GI50 (PC-3): > 100 µM (inactive)
GI50 (SF-295): > 100 µM (inactive)
GI50 (A498): > 100 µM (inactive)
GI50 (HOP-92): > 100 µM (inactive)
GI50 (HCT-15): > 100 µM
GI50 (NCI-H522): > 100 µM (inactive)
GI50 (HCC 2998): > 100 µM (inactive)
GI50 (RXF 393): 16.6 µM (inactive)
GI50 (Malme-3M): > 100 µM (inactive)
GI50 (SK-MEL-28): > 100 µM (inactive)
GI50 (Hs-578T): > 100 µM (inactive)
GI50 (786-0): > 100 µM (inactive)
GI50 (COLO 205): > 100 µM (inactive)
GI50 (MCF7): > 100 µM (inactive)
GI50 (NCI-H23): > 100 µM (inactive)
GI50 (KM12): > 100 µM (inactive)
GI50 (SK-MEL-2): > 100 µM (inactive)
GI50 (TK-10): > 100 µM (inactive)
GI50 (MOLT-4): > 100 µM (inactive)
GI50 (OVCAR-8): > 100 µM (inactive)

Cc1cccc(C)c1NC(=S)NC=C1C(=O)c2ccccc2C1=O
GI50 (ACHN): 5.19 µM (inactive)
GI50 (U-251): 3.09 µM (inactive)
GI50 (HOP-62): 23.2 µM (inactive)
GI50 (MDA-MB-435): 7.5 µM (inactive)
GI50 (SF-268): 7.52 µM (inactive)
GI50 (SNB-75): 3.52 µM (inactive)
GI50 (UO-31): 9.29 µM (inactive)
GI50 (MDA-MB-231): 19.5 µM (inactive)
GI50 (SF-539): 11.2 µM (inactive)
GI50 (SK-MEL-5): 7.91 µM (inactive)
GI50 (CCRF-CEM): 5.18 µM (inactive)
GI50 (MDA-N): 9.14 µM (inactive)
GI50 (EKVX): 9.82 µM (inactive)
GI50 (SW-620): 6.85 µM (inactive)
GI50 (SN12C): 9.42 µM (inactive)
GI50 (CAKI-1): 17.8 µM (inactive)
GI50 (SR): 2.22 µM (inactive)
GI50 (SK-OV-3): 18.4 µM (inactive)
GI50 (HT-29): 5.78 µM (inactive)
GI50 (OVCAR-3): 5.38 µM (inactive)
GI50 (A549): 6.78 µM (inactive)
GI50 (BT-549): 4.84 µM (inactive)
GI50 (SNB-19): 18.2 µM (inactive)
GI50 (DU-145): 12.1 µM (inactive)
GI50 (UACC-257): 12.4 µM (inactive)
GI50 (LOX IMVI): 19.1 µM (inactive)
GI50 (NCI/ADR-RES): 16.8 µM (inactive)
GI50 (HCT-116): 4.62 µM (inactive)
GI50 (UACC-62): 5.24 µM (inactive)
GI50 (T47D): 6.17 µM (inactive)
GI50 (OVCAR-4): 10.5 µM (inactive)
GI50 (OVCAR-5): 39.7 µM (inactive)
GI50 (NCI-H460): 3.98 µM (inactive)
GI50 (HL-60): 2.45 µM (inactive)
GI50 (M14): 17.5 µM (inactive)
GI50 (K562): 3.61 µM (inactive)
GI50 (PC-3): 3.76 µM (inactive)
GI50 (SF-295): 4.67 µM (inactive)
GI50 (HOP-92): 12.5 µM (inactive)
GI50 (HCT-15): 7.35 µM
GI50 (NCI-H522): 3.41 µM (inactive)
GI50 (NCI-H226): 46.1 µM (inactive)
GI50 (RPMI-8226): 3.07 µM (inactive)
GI50 (HCC 2998): 5.86 µM (inactive)
GI50 (RXF 393): 4.3 µM (inactive)
GI50 (SK-MEL-28): 15.3 µM (inactive)
GI50 (Hs-578T): 10.5 µM (inactive)
GI50 (786-0): 13.1 µM (inactive)
GI50 (COLO 205): 3.52 µM (inactive)
GI50 (MCF7): 4.59 µM (inactive)
GI50 (NCI-H23): 16.6 µM (inactive)
GI50 (KM12): 2.83 µM (inactive)
GI50 (SK-MEL-2): 16 µM (inactive)
GI50 (TK-10): 6.73 µM (inactive)
GI50 (MOLT-4): 0.75 µM (active)
GI50 (OVCAR-8): 1.44 µM (inactive)
GI50 (IGROV-1): 6.95 µM (inactive)

Cc1ccc(NC(=O)/C(=N\NC(N)=O)c2c(O)c3ccccc3[nH]c2=O)cc1
GI50 (ACHN): > 100 µM (inactive)
GI50 (U-251): > 100 µM (inactive)
GI50 (MDA-MB-435): > 100 µM (inactive)
GI50 (SF-268): > 100 µM (inactive)
GI50 (SNB-75): 99.8 µM (inactive)
GI50 (UO-31): > 100 µM (inactive)
GI50 (MDA-MB-231): > 100 µM (inactive)
GI50 (SF-539): > 100 µM (inactive)
GI50 (SK-MEL-5): > 100 µM (inactive)
GI50 (CCRF-CEM): > 100 µM (inactive)
GI50 (MDA-N): > 100 µM (inactive)
GI50 (SW-620): > 100 µM (inactive)
GI50 (SN12C): > 100 µM (inactive)
GI50 (CAKI-1): > 100 µM (inactive)
GI50 (SR): > 100 µM (inactive)
GI50 (SK-OV-3): > 100 µM (inactive)
GI50 (HT-29): > 100 µM (inactive)
GI50 (OVCAR-3): > 100 µM (inactive)
GI50 (A549): > 100 µM (inactive)
GI50 (BT-549): > 100 µM (inactive)
GI50 (SNB-19): > 100 µM (inactive)
GI50 (DU-145): > 100 µM (inactive)
GI50 (UACC-257): > 100 µM (inactive)
GI50 (LOX IMVI): > 100 µM (inactive)
GI50 (NCI/ADR-RES): > 100 µM (inactive)
GI50 (HCT-116): > 100 µM (inactive)
GI50 (UACC-62): > 100 µM (inactive)
GI50 (T47D): > 100 µM (inactive)
GI50 (OVCAR-4): > 100 µM (inactive)
GI50 (OVCAR-5): > 100 µM (inactive)
GI50 (NCI-H460): > 100 µM (inactive)
GI50 (HL-60): > 100 µM (inactive)
GI50 (M14): > 100 µM (inactive)
GI50 (K562): > 100 µM (inactive)
GI50 (PC-3): > 100 µM (inactive)
GI50 (SF-295): > 100 µM (inactive)
GI50 (A498): > 100 µM (inactive)
GI50 (HOP-92): > 100 µM (inactive)
GI50 (HCT-15): > 100 µM
GI50 (NCI-H226): > 100 µM (inactive)
GI50 (RPMI-8226): > 100 µM (inactive)
GI50 (HCC 2998): > 100 µM (inactive)
GI50 (RXF 393): > 100 µM (inactive)
GI50 (SK-MEL-28): > 100 µM (inactive)
GI50 (Hs-578T): > 100 µM (inactive)
GI50 (786-0): > 100 µM (inactive)
GI50 (COLO 205): > 100 µM (inactive)
GI50 (MCF7): > 100 µM (inactive)
GI50 (NCI-H23): > 100 µM (inactive)
GI50 (KM12): > 100 µM (inactive)
GI50 (SK-MEL-2): > 100 µM (inactive)
GI50 (MOLT-4): > 100 µM (inactive)
GI50 (OVCAR-8): > 100 µM (inactive)

Source: ChEMBL document CHEMBL1201862, “PubChem BioAssay data set” (2004)
